# Values of other authors in patent US20050239864A1, “Novel tumor-selective chemotherapeutic agents” (priority 2004, published 2005).
# Columns and labels:
# [1] = tested on: MDA-MB 435 human breast cancer; details: cited from earlier work
# HSA = HSA (Homo sapiens, UniProt P02768); details: exogenously added HSA; cited from earlier work
# endogenous albumin = biological target: T1, endogenous albumin (Homo sapiens, UniProt P02768); details: human blood plasma; cited from earlier work
# T1 construct: To determine the coupling rate and selectivity of Dox-MH for endogenous albumin, Dox-MH was incubated with human blood plasma; from tissue; host or cells: human blood plasma
# T1 sequence (P02768 25-609): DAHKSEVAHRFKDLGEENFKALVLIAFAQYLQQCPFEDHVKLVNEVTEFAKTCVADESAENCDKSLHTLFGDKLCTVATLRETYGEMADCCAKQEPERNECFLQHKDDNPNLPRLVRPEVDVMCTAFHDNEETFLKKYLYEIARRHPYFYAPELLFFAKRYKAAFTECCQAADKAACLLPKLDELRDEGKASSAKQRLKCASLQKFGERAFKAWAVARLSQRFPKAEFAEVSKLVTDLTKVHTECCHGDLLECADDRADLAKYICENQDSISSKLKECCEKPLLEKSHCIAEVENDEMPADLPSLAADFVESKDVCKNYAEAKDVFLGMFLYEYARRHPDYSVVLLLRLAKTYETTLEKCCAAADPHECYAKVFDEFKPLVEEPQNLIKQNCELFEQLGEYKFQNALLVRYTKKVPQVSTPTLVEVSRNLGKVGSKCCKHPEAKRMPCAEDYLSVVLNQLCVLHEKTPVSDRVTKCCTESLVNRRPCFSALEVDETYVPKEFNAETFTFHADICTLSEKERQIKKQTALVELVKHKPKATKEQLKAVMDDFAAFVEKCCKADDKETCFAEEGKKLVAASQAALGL
# [2] = tested on: mouse renal RENCA, human breast cancers MDA-MB 435 and MCF-7; details: three animal tumor models; cited from earlier work
# Sequence of HSA (P02768 25-609): as above
compound,measurement,setting,value
COc1cccc2c1C(=O)c1c(O)c3c(c(O)c1C2=O)C[C@@](O)(/C(CO)=N/NC(=O)CCCCCN1C(=O)C=CC1=O)C[C@@H]3O[C@H]1C[C@H](N)[C@H](O)[C@H](C)O1 [Dox-MH],antitumor response,[1]; Dox-MH at optimal dose (3×23 mg/kg),complete remissions were achieved
same,change in body weight,[1]; after 24 days of drug administration,did not produce an overall change in body weight
same,time by which all had reacted with HSA,HSA,≤ 90 min
same,time by which majority had reacted with HSA,HSA,≤ 5 min
same,time after which reaction with HSA was almost complete,endogenous albumin,2 min
same,time by which all had reacted,endogenous albumin,≤ 90 min
same,antitumor efficacy and toxicity versus free doxorubicin,[2],distinctly superior to free doxorubicin
